Test results: ChEMBL document CHEMBL5678818, “Discovery of potent SOS1 inhibitors that block RAS activation via disruption of the RAS-SOS1 interaction” (Proc Natl Acad Sci U S A, 2019)

Tests used:
[1] = target: T1, Ephrin type-A receptor 6 (Homo sapiens) (UniProt Q9UF33); assay: Inhibition of EPHA6 (unknown origin) assessed as residual activity at 1000 nM by KINOMEscan analysis relative to control
T1 sequence (whole entry): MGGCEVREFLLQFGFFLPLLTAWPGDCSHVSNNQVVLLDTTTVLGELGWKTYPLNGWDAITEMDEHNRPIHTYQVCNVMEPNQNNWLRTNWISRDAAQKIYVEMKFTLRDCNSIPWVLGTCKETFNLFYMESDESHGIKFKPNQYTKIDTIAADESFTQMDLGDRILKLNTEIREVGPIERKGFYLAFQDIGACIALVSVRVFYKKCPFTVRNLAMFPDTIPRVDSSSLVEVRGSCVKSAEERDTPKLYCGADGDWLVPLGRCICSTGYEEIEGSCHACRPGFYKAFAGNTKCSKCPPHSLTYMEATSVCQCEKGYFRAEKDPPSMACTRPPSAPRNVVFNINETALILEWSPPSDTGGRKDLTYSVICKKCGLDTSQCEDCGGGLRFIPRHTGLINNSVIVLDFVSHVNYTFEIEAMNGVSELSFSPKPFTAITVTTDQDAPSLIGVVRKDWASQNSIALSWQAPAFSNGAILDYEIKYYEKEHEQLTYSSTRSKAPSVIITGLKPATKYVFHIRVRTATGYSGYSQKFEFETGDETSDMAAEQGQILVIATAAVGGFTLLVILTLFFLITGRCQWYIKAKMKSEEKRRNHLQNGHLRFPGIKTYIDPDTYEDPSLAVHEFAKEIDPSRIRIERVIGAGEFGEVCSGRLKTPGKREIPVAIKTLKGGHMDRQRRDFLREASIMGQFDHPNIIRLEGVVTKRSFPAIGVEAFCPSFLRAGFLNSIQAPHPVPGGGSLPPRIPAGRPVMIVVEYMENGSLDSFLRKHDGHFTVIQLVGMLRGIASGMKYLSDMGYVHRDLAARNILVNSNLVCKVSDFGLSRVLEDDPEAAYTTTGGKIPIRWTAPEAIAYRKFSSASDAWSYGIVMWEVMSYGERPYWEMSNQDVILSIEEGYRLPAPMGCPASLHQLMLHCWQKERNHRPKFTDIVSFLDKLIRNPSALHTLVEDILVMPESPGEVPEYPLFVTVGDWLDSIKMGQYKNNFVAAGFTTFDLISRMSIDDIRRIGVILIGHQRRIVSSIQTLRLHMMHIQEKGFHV

[2] = target: Phosphatidylinositol 4-kinase beta (Homo sapiens) (UniProt Q9UBF8); assay: Inhibition of PIK4CB (unknown origin) assessed as residual activity at 1000 nM by KINOMEscan analysis relative to control
[3] = target: T2, Phosphatidylinositol 5-phosphate 4-kinase type-2 gamma (Homo sapiens) (UniProt Q8TBX8); assay: Inhibition of PIP5K2C (unknown origin) assessed as residual activity at 1000 nM by KINOMEscan analysis relative to control
T2 sequence (whole entry): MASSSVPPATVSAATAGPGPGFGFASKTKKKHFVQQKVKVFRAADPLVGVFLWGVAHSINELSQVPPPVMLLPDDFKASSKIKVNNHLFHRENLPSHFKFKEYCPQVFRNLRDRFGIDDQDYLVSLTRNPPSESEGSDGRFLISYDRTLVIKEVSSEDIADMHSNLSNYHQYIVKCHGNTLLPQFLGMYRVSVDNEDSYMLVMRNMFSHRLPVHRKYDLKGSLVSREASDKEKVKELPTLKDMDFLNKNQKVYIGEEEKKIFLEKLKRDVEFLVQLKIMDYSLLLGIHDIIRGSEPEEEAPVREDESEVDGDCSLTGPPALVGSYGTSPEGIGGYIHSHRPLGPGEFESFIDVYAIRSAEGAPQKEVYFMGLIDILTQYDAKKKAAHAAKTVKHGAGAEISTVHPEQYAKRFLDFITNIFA

[4] = system: Epidermal growth factor receptor (Homo sapiens), P00533 [L858R]; assay: Inhibition of EGFR L858R mutant (unknown origin) assessed as residual activity at 1000 nM by KINOMEscan analysis relative to control
[5] = target: T3, Cyclin-G-associated kinase (Homo sapiens) (UniProt O14976); assay: Inhibition of GAK (unknown origin) assessed as residual activity at 1000 nM by KINOMEscan analysis relative to control
T3 sequence (whole entry): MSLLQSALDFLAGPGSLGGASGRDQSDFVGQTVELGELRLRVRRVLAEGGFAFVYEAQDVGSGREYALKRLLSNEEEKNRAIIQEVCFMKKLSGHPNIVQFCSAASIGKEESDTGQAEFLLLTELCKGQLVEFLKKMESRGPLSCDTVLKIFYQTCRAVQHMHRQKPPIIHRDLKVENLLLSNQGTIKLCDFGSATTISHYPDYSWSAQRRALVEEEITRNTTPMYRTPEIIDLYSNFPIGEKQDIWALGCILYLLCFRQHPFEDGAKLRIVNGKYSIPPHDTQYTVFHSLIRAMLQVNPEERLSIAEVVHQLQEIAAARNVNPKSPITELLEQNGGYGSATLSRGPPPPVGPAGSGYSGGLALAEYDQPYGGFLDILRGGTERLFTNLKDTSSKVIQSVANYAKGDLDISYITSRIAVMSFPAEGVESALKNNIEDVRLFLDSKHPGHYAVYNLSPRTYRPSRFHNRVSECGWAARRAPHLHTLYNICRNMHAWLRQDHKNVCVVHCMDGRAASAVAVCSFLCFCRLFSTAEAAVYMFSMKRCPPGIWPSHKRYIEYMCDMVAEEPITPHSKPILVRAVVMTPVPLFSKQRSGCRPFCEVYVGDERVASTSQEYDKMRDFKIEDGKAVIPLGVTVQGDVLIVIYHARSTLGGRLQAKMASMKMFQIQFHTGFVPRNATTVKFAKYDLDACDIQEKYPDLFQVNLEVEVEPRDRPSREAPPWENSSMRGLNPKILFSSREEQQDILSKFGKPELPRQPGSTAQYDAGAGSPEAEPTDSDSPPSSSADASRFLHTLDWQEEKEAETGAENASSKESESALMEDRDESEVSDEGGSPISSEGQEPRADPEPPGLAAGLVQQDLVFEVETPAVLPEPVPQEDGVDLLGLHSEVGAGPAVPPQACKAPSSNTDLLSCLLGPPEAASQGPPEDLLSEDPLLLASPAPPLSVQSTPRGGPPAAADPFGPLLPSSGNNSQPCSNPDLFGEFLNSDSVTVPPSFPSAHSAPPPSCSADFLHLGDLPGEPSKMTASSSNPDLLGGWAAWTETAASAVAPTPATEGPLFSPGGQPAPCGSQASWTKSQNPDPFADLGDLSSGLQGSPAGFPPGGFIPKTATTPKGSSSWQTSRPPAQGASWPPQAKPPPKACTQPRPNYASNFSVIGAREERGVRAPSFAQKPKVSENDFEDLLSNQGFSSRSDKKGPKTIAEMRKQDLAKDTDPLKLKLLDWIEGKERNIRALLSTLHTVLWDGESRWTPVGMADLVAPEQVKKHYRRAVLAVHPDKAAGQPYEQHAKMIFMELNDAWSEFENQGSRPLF

Chain of Phosphatidylinositol 4-kinase beta (Homo sapiens) (Q9UBF8 2-816 limits assumed): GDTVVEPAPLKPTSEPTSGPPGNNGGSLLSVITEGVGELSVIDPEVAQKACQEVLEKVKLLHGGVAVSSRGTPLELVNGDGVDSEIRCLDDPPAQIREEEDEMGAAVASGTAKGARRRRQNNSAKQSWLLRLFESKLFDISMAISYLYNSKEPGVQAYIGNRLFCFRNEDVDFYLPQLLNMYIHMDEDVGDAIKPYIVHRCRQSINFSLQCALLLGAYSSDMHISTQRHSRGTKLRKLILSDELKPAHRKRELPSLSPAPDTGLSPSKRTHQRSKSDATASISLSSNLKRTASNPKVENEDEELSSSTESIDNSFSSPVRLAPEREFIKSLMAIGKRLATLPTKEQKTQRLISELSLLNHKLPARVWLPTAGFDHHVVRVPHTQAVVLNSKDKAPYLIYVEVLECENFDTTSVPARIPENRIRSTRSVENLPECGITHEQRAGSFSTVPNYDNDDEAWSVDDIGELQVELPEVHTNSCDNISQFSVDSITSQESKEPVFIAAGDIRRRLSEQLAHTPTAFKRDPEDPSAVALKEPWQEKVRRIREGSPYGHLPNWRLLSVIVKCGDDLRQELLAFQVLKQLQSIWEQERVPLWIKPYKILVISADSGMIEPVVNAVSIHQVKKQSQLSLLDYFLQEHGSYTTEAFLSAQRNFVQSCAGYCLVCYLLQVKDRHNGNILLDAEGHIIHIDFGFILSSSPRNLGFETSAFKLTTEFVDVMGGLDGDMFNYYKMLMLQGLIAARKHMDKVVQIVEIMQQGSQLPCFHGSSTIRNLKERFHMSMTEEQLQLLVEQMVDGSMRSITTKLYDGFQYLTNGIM

SMILES	Activity [1] [%]	Activity [2] [%]	Activity [3] [%]	Activity [4] [%]	Activity [5] [%]
COc1cc2nc(C)nc(N[C@H](C)c3cccc(-c4cn[nH]c4)c3)c2cc1OC	96	69	69	100	96
COc1cc2ncnc(N[C@H](C)c3cccc4ccccc34)c2cc1OC	88	82	80	1.7	59
